According to US11208387B2, “Macrocyclic broad spectrum antibiotics” (Genentech, Inc., priority 2019, dated 2021):
Converted amounts (≈) assume the structure as drawn. Like-named read-outs stand apart in the source and are kept apart here.

What was measured:
[1] = tested on: isolated liver mitochondria; assay: Mitochondrial oxygen consumption rate (OCR) assay; assay type: biochemical, Sprague-Dawley rats; conditions: isolated rat liver mitochondria, state 3 (S3) respiration, glutamate/malate; Table 3
Source text: Male Sprague-Dawley rats (8-10 weeks of age) were euthanized with an overdose of carbon dioxide. The liver was rapidly excised and placed in ice-cold phosphate-buffered saline (PBS) before isolation process. Mitochondria were isolated using the MitoCheck® Mitochondrial Isolation Kit (Cayman Chemical #701010, Ann Arbor, Mich.) according to manufacturer's instructions. In brief, approximately 10-14 grams of liver tissues were finely minced using a pair of scissors, and washed repeatedly with ice-cold PBS, followed by Mito Isolation Buffer. The minced tissues were homogenized with 30 ml Mito Homogenization Buffer in 40 ml dounce homogenizer and a smooth glass grinder. The homogenate was split into two clean 30 ml polycarbonate tubes and centrifuged at 1,000×g, 4° C., for 3 minutes. The supernatant was subjected to further centrifugation at 10,000×g, 4° C., for 10 minutes. The supernatant was discarded and mitochondrial pellet was suspended in Mito Isolation Buffer using a glass stirring rod and stored on ice until use. Protein concentration of mitochondria was determined using a bicinchoninic acid protein assay kit (Thermo Scientific, Waltham, Mass.).
Oxygen consumption was monitored as essentially described by Will et al., “Analysis of mitochondrial function using phosphorescent oxygen-sensitive probes,” Nature Protocols Vol. 1(6) (2006) 2563. Briefly, isolated mitochondria (50 μg mitochondrial proteins/state 3 (S3) of mitochondrial respiration for inhibitor identification, 100 μg/S2 for uncoupler identification) were incubated with compounds in 25 μl of Measurement Buffer (MB: 250 mM sucrose, 15 mM KCl, 1 mM EGTA, 5 mM MgCl2, 30 mM K2HPO4, pH 7.4) including 1% DMSO on ice for 1 hour, then mixed with 25 μl of substrate mixture including an oxygen-sensitive phosphorescent dye (MitoXpress Xtra, Agilent, Santa Clara, Calif.), glutamate (25 mM, G1626, Sigma, St. Louis, Mo.), malate (25 mM, M6413, Sigma), ADP (3.3 mM, A2754, Sigma, only for S3 of mitochondrial respiration), Fatty acid free BSA (0.1%, A0281, Sigma), and a complex II-specific inhibitor TTFA (2 μM, T27006, Sigma for the assessment of complex I-mitochondrial respiration with glutamate/malate) in a black wall/clear bottom 384-well plate. The mixtures were covered with HS mineral oil (Agilent) using the Viaflo 384-channel pipette (Integra, Hudson, N.H.). Oxygen consumption was measured for 30 min at 30° C. using a spectrofluorimeter (FLUOstar Omega, BMG Labtech, Cary, N.C.). In S3, DMSO vehicle control and antimycin A (10 μM) were used to define 0% and 100% inhibition. In S2, DMSO vehicle and FCCP (0.5-1 μM) was used to define 0% and 100% uncoupling, respectively. Area under curve typically in a range of 0-12 min (S3) or 0-24 min (S2) was used for calculations. IC50 or UC50 (uncoupling concentration), a concentration that causes 50% of inhibition or maximal (uncoupling) activation of oxygen consumption, was used to evaluate experimental quality. Data were presented as μM (per 50 μg (S3) or 100 μg (S2) mitochondrial proteins). Compounds with IC50: <100 μM (S3) and/or UC50: <200 μM (S2) were considered as high-risk on mitochondrial toxicity. Compounds with 25-50% changes in inhibition and/or uncoupling were categorized as medium-risk, since compounds with >25% changes are considered as responders.
Toxicity associated with mitochondrial dysfunction has presented a problem for promising potential antibiotics as we as other types of therapeutics. The mitochondrial oxygen consumption rate (OCR) assay is considered a reliable indicator of potential internal organ toxicity issues that may occur with powerful antibiotics. The carboxylate compounds of the invention show unexpected lower toxicity than prior art “glycine nitrile” arylomycin analogs (see, e.g., WO 2018/149419) in the mitochondrial oxygen consumption rate (OCR) assay.

[2] = tested on: Acinetobacter baumannii ATCC 17978; assay: Serum MIC, broth micro-dilution; assay type: cell-based; conditions: Acinetobacter baumannii
Procedure, shortened: (§1)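 CLSI broth micro-dilution MIC run in 50% v/v cation-adjusted Mueller Hinton II broth plus 50% v/v mouse serum. Compounds were serially 2-fold diluted (10 concentrations) from a top concentration of 64, 4, 0.5 or 0.13 μg/mL; inoculum at final OD600 0.0005, incubated 35° C for 22 hours.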

[3] = tested on: Escherichia coli strain ATCC 25922; assay: Serum MIC, broth micro-dilution; assay type: cell-based; conditions: Escherichia coli, read-out: E. coli 25922 Serum MIC
Procedure, shortened: as §1

[4] = tested on: Klebsiella pneumoniae ATCC 700603; assay: Serum MIC, broth micro-dilution; assay type: cell-based; conditions: Klebsiella pneumoniae, read-out: K pneumoniae 700603 Serum MIC
Procedure, shortened: as §1

[5] = tested on: Pseudomonas aeruginosa PA01; assay: Serum MIC, broth micro-dilution; assay type: cell-based; conditions: Pseudomonas aeruginosa, read-out: P. aeruginosa 01 Serum MIC
Procedure, shortened: as §1

[6] = ATCC17978, 50% v/v mouse serum in Mueller Hinton II cation adjusted Broth, 35° C., 22 hours, Table 4, read-out: A. baumanii 17978 Serum MIC
[7] = ATCC17978, 50% v/v mouse serum in Mueller Hinton II cation adjusted Broth, 35° C., 22 hours, Table 5, read-out: Acinetobacter baumanii 17978 Serum MIC
[8] = ATCC25922, 50% v/v mouse serum in Mueller Hinton II cation adjusted Broth, 35° C., 22 hours, Table 4
[9] = ATCC700603, 50% v/v mouse serum in Mueller Hinton II cation adjusted Broth, 35° C., 22 hours, Table 4
[10] = PA01, 50% v/v mouse serum in Mueller Hinton II cation adjusted Broth, 35° C., 22 hours, Table 4

| IC50 [1] | MIC [2, 6] | MIC [2, 7] | MIC [3, 8] | MIC [4, 9] | MIC [5, 10] | SMILES | MIC ([2]; ATCC17978, 22 h, read-out: A. baumanii 17978 Serum MIC) | MIC ([2]; ATCC17978, 22 h, read-out: Acinetobacter baumanii 17978 Serum MIC) | MIC ([3]; ATCC25922, 22 h) | MIC ([4]; ATCC700603, 22 h) | MIC ([5]; PA01, 22 h) |
| --- | --- | --- | --- | --- | --- | --- | --- | --- | --- | --- | --- |
| 28 µM | 16 µM (≈ 15.9 µg/mL) | 16 µM (≈ 15.9 µg/mL) | 0.38 µM (≈ 0.377 µg/mL) | 0.5 µM (≈ 0.497 µg/mL) | 7 µM (≈ 6.95 µg/mL) | Cc1nc(-c2ccc(C(C)(C)C)cc2)ncc1C(=O)N[C@@H](CNS(N)(=O)=O)C(=O)N(C)[C@@H]1C(=O)N[C@@H](C)C(=O)N[C@H](C(=O)O)Cc2ccc(OC[C@H](O)CN)c(c2)-c2cc1cc(OC[C@H](O)CN)c2O [Example 8, (8S,11S,14S)-18-hydroxy-11-methyl-14-[methyl-[(2S)-2-[[2-(4-tert-butyl-phenyl)-4-methyl-pyrimidine-5-carbonyl]amino]-3-(sulfamoylamino)-propanoyl]amino]-10,13-dioxo-3,17-bis[(2R)-3-amino-2-hydroxy-propoxy]-9,12-diazatricyclo-[13.3.1.12,6]icosa-1(18),2(20),3,5,15(19), 16-hexaene-8-carboxylic acid] |  |  |  |  |  |
| > 100 µM | 16 µM (≈ 16.7 µg/mL) | 16 µM (≈ 16.7 µg/mL) | 0.5 µM (≈ 0.522 µg/mL) | 0.5 µM (≈ 0.522 µg/mL) | 12 µM (≈ 12.5 µg/mL) | Cc1nc(-c2ccc(C(F)(F)C(C)C)cc2)nc(N)c1C(=O)N[C@@H](CNS(N)(=O)=O)C(=O)N(C)[C@@H]1C(=O)N[C@@H](C)C(=O)N[C@H](C(=O)O)Cc2ccc(OC[C@H](O)CN)c(c2)-c2cc1cc(OC[C@H](O)CN)c2O [Example 38, (8S,11S,14S)-14-[[(2S)-2-[[4-amino-2-[4-(1,1-difluoro-2-methyl-propyl)-phenyl]-6-methyl-pyrimidine-5-carbonyl]amino]-3-(sulfamoylamino)-propanoyl]-methyl-amino]-3,17-bis[(2R)-3-amino-2-hydroxy-propoxy]-18-hydroxy-11-methyl-10,13-dioxo-9,12-diazatri-cyclo[13.3.1.12,6]icosa-1(18),2(20),3,5,15(19), 16-hexaene-8-carboxylic acid] |  |  |  |  |  |
| > 200 µM | 14 µM (≈ 14.3 µg/mL) | 14 µM (≈ 14.3 µg/mL) | 0.5 µM (≈ 0.511 µg/mL) | 0.31 µM (≈ 0.317 µg/mL) | 8 µM (≈ 8.18 µg/mL) | Cc1nc(-c2ccc(C(C)(C)C)cc2)nc(CN)c1C(=O)N[C@@H](CNS(N)(=O)=O)C(=O)N(C)[C@@H]1C(=O)N[C@@H](C)C(=O)N[C@H](C(=O)O)Cc2ccc(OC[C@H](O)CN)c(c2)-c2cc1cc(OC[C@H](O)CN)c2O [Example 72, (8S,11S,14S)-3,17-bis[(2R)-3-amino-2-hydroxy-propoxy]-14-[[(2S)-2-[[4-(amino-methyl)-2-(4-tert-butylphenyl)-6-methyl-pyrimidine-5-carbonyl]amino]-3-(sulfamoylamino)-propanoyl]-methyl-amino]-18-hydroxy-11-methyl-10,13-dioxo-9,12-diazatri-cyclo[13.3.1.12,6]icosa-1(18),2(20),3,5,15(19), 16-hexaene-8-carboxylic acid] |  |  |  |  |  |
| 48 µM | 16 µM (≈ 16.6 µg/mL) | 16 µM (≈ 16.6 µg/mL) | 0.5 µM (≈ 0.518 µg/mL) | 1 µM (≈ 1.04 µg/mL) | 4 µM (≈ 4.14 µg/mL) | Cc1nc(-c2ccc3c(c2O)CCC3(C)C)nc(N)c1C(=O)N[C@@H](CNS(N)(=O)=O)C(=O)N(C)[C@@H]1C(=O)N[C@@H](C)C(=O)N[C@H](C(=O)O)Cc2ccc(OC[C@H](O)CN)c(c2)-c2cc1cc(OC[C@H](O)CN)c2O [Example 70, (8S,11S,14S)-18-hydroxy-11-methyl-14-[methyl-[(2S)-2-[[4-amino-2-(4-hydroxy-1,1-dimethyl-indan-5-yl)-6-methyl-pyrimidine-5-carbonyl]-amino]-3-(sulfamoyl-amino)propanoyl]-amino]-10,13-dioxo-3,17-bis[(2R)-3-amino-2-hydroxy-propoxy]-9,12-diazatricyclo-[13.3.1.12,6]icosa-1(18),2(20),3,5,15(19), 16-hexaene-8-carboxylic acid] |  |  |  |  |  |
| > 250 µM | 32 µM (≈ 29.7 µg/mL) | 32 µM (≈ 29.7 µg/mL) | 1 µM (≈ 0.928 µg/mL) | 0.75 µM (≈ 0.696 µg/mL) | 16 µM (≈ 14.8 µg/mL) | Cc1nc(-c2ccc(C(C)(C)C)cc2)nc(C)c1C(=O)N[C@@H](CN)C(=O)N(C)[C@@H]1C(=O)N[C@@H](C)C(=O)N[C@H](C(=O)O)Cc2ccc(OC[C@H](O)CN)c(c2)-c2cc1cc(OC[C@H](O)CN)c2O [Example 30, (8S,11S,14S)-18-hydroxy-11-methyl-14-[methyl-[(2S)-3-amino-2-[[2-(4-tert-butylphenyl)-4,6-dimethyl-pyrimidine-5-carbonyl]amino]-propanoyl]amino]-10,13-dioxo-3,17-bis[(2R)-3-amino-2-hydroxy-propoxy]-9,12-diazatricyclo-[13.3.1.12,6]icosa-1(18),2(20),3,5,15(19), 16-hexaene-8-carboxylic acid] |  |  |  |  |  |
| > 200 µM | 16 µM (≈ 15.1 µg/mL) | 16 µM (≈ 15.1 µg/mL) | 0.5 µM (≈ 0.472 µg/mL) | 0.25 µM (≈ 0.236 µg/mL) | 16 µM (≈ 15.1 µg/mL) | Cc1nc(-c2ccc(C(C)(C)C)cc2)nc(N)c1C(=O)N[C@@H](CCN)C(=O)N(C)[C@@H]1C(=O)N[C@@H](C)C(=O)N[C@H](C(=O)O)Cc2ccc(OC[C@H](O)CN)c(c2)-c2cc1cc(OC[C@H](O)CN)c2O [Example 24, (8S,11S,14S)-18-hydroxy-11-methyl-14-[methyl-[(2S)-4-amino-2-[[4-amino-2-(4-tert-butylphenyl)-6-methyl-pyrimidine-5-carbonyl]amino]-butanoyl]amino]-10,13-dioxo-3,17-bis[(2R)-3-amino-2-hydroxy-propoxy]-9,12-diazatricyclo-[13.3.1.12,6]icosa-1(18),2(20),3,5,15(19), 16-hexaene-8-carboxylic acid] |  |  |  |  |  |

| SMILES | IC50 [1] | MIC [2, 6] | MIC [2, 7] | MIC [3, 8] | MIC [4, 9] | MIC [5, 10] | MIC ([2]; ATCC17978, 22 h, read-out: A. baumanii 17978 Serum MIC) | MIC ([2]; ATCC17978, 22 h, read-out: Acinetobacter baumanii 17978 Serum MIC) | MIC ([3]; ATCC25922, 22 h) | MIC ([4]; ATCC700603, 22 h) | MIC ([5]; PA01, 22 h) |
| --- | --- | --- | --- | --- | --- | --- | --- | --- | --- | --- | --- |
| Cc1nc(-c2ccc(C(C)(C)C)cc2)nc(C)c1C(=O)N[C@@H](CCN)C(=O)N(C)[C@@H]1C(=O)N[C@@H](C)C(=O)N[C@H](C(=O)O)Cc2ccc(OC[C@H](O)CN)c(c2)-c2cc1cc(OC[C@H](O)CN)c2O [Example 19, (8S,11S,14S)-18-hydroxy-11-methyl-14-[methyl-[(2S)-4-amino-2-[[2-(4-tert-butylphenyl)-4,6-dimethyl-pyrimidine-5-carbonyl]amino]-butanoyl]amino]-10,13-dioxo-3,17-bis[(2R)-3-amino-2-hydroxy-propoxyl]-9,12-diazatricyclo-[13.3.1.12,6]icosa-1(18),2(20),3,5,15(19), 16-hexaene-8-carboxylic acid] | > 250 µM |  |  |  |  |  | 16 µM (≈ 15.1 µg/mL) | 16 µM (≈ 15.1 µg/mL) | 0.25 µM (≈ 0.236 µg/mL) | 0.25 µM (≈ 0.236 µg/mL) | 8 µM (≈ 7.54 µg/mL) |
